What all share (type): cell-based
One experiment addresses T1, PTGER2 (EP2) (Homo sapiens, UniProt P43116).
T1 construct: host or cells: HEK 293 (PathHunter PTGER2 b-arrestin cell line)
As to the kind of experiment: hEP2 b-arrestin assay (PathHunter HEK 293 PTGER2 b-arrestin cells). Particulars: antagonistic activity, beta-arrestin assay; read-out: hEP2 b-arr IC50. In a few lines: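 PathHunter HEK293 cells with ProLink-tagged EP2 and EA-β-arrestin 2 preincubated 15 min at 37 °C with compound (10 μM-2 nM or 1 μM-0.2 nM), then stimulated 120 min with 5 μM PGE2 (EC80). β-gal complementation read by chemiluminescence; IC50 from duplicate dose-response versus DMSO.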

A further experiment concerns the target T2, PTGER4 (EP4) (Homo sapiens, UniProt P35408).
T2 construct: host or cells: HEK 293 (PathHunter PTGER4 b-arrestin cell line)
The experiment in a line: hEP4 b-arrestin assay (PathHunter HEK 293 PTGER4 b-arrestin cells). Particulars: antagonistic activity, beta-arrestin assay; read-out: hEP4 b-arr IC50. In a few lines:
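PathHunter HEK 293 cells expressing ProLink-tagged human EP4 and EA-β-arrestin 2, seeded 24 h before. Compounds (10 μM–2 nM or 1 μM–0.2 nM) preincubated 15 min at 37 °C, then 20 nM PGE2 (EC80) for 120 min at 37 °C. β-gal complementation luminescence read; IC50 from duplicate dose-response curves versus DMSO control.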

The target in another experiment is T3, EP2 receptor (Homo sapiens, UniProt P43116).
T3 construct: SF295 glioblastoma cells express high endogenous EP2 and no EP4; host or cells: SF295 glioblastoma cells
T3 sequence (P43116 whole entry): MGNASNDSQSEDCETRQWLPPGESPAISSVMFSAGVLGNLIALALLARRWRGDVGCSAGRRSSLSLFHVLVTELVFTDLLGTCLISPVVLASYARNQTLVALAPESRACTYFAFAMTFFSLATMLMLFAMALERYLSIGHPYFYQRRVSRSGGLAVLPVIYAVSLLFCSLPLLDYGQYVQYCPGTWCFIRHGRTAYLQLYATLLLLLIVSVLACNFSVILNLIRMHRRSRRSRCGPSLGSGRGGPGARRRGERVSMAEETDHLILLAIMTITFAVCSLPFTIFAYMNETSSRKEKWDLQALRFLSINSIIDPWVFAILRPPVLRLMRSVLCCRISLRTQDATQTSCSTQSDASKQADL
As to the kind of experiment: hEP2 cAMP assay (SF295 glioblastoma cells, HTRF cAMP, PGE2 stimulation). Particulars: antagonistic activity. In a few lines: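 SF295 glioblastoma cells with endogenous EP2 and no EP4, in HBSS/HEPES/BSA with 2 mM IBMX, pre-incubated 45 min at room temperature with compound, then stimulated 30 min with 75 nM PGE2 (EC80). cAMP measured by HTRF; IC50 fitted from duplicate % cAMP versus DMSO control.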
In general terms: cAMP levels reflect the balance of adenylyl cyclase and phosphodiesterase activity.

A word on the IC50: it is the concentration that inhibits the measured activity by half.

T1 sequence (P43116 whole entry): as above
T2 sequence (P35408 whole entry): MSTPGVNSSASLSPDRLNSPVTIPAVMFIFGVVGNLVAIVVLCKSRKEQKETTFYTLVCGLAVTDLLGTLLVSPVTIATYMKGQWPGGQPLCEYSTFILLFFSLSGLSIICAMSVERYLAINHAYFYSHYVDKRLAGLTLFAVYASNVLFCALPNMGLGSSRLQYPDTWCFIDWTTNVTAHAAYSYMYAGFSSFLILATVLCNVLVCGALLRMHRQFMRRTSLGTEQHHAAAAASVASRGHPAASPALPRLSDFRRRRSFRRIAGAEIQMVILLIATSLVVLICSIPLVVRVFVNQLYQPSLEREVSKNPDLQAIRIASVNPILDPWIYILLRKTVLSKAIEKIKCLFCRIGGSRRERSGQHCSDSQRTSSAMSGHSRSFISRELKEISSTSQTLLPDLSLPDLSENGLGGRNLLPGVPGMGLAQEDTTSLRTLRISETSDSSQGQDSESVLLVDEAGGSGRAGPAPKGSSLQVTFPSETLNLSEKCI

On to `CCOc1cc(-c2cc(NCCc3c(C)oc4c(OC)cc(Cl)cc34)ncn2)ccc1C(=O)O` [Example 70, 4-{6-[2-(5-Chloro-7-methoxy-2-methyl-benzofuran-3-yl)-ethylamino]-pyrimidin-4-yl}-2-ethoxy-benzoic acid], for which the half-inhibitory concentration (IC50) at PTGER2 (EP2) turned out to be 37 nM; on PTGER4 (EP4) it was 394 nM; at EP2 receptor it was 80 nM.

Turning to `CCOc1cc(-c2cc(NCCc3c(C)oc4c(Cl)cc(Cl)cc34)ncn2)ccc1C(=O)O` [Example 71, 4-{6-[2-(5,7-Dichloro-2-methyl-benzofuran-3-yl)-ethylamino]-pyrimidin-4-yl}-2-ethoxy-benzoic acid], the values for the concentration for half-maximal inhibition (IC50) on PTGER2 (EP2), on PTGER4 (EP4) and against EP2 receptor were 7 nM, 958 nM and 10 nM, respectively.

For `CCOc1cc(-c2cc(NCCc3c(C)sc4ccccc34)ncn2)ccc1C(=O)O` [Example 72, 2-Ethoxy-4-{6-[2-(2-methyl-benzo[b]thiophen-3-yl)-ethylamino]-pyrimidin-4-yl}-benzoic acid], the IC50 at PTGER2 (EP2) turned out to be 3 nM; on PTGER4 (EP4) it was 2250 nM; at EP2 receptor it was 8 nM.

On to `CCOc1cc(-c2cc(NCCc3c(Cl)sc4ccccc34)ncn2)ccc1C(=O)O` [Example 75, 4-{6-[2-(2-chloro-benzo[b]thiophen-3-yl)-ethylamino]-pyrimidin-4-yl}-2-ethoxy-benzoic acid], for which the half-inhibitory concentration (IC50) at PTGER2 (EP2) came to 8 nM; on PTGER4 (EP4), 4300 nM; against EP2 receptor it was 9 nM.

As for `Cc1sc2c(C)cccc2c1CCNc1cc(-c2ccc3c(C(=O)O)coc3c2)ncn1` [Example 76, 6-{6-[2-(2,7-Dimethyl-benzo[b]thiophen-3-yl)-ethylamino]-pyrimidin-4-yl}-benzofuran-3-carboxylic acid], the values for the IC50 at PTGER2 (EP2), on PTGER4 (EP4) and on EP2 receptor were 10 nM, 1140 nM and 39 nM, respectively.

Regarding `Cc1sc2c(C)cccc2c1CCNc1cc(-c2ccc3cc(C(=O)O)oc3c2)ncn1` [Example 77, 6-{6-[2-(2,7-Dimethyl-benzo[b]thiophen-3-yl)-ethylamino]-pyrimidin-4-yl}-benzofuran-2-carboxylic acid], the 50% inhibitory concentration (IC50) is 6 nM at PTGER2 (EP2), 1310 nM on PTGER4 (EP4) and 8 nM against EP2 receptor.

Turning to `Cc1sc2c(C)cc(F)cc2c1CCNc1cc(-c2ccc(-c3nc(=O)[nH]o3)cc2)ncn1` [Example 79, 5-(4-{6-[2-(5-Fluoro-2,7-dimethyl-benzo[b]thiophen-3-yl)-ethylamino]-pyrimidin-4-yl}-phenyl)-[1,2,4]oxadiazol-3(2H)-one [tautomeric form: 5-(4-(6-((2-(5-fluoro-2,7-dimethylbenzo[b]thiophen-3-yl)ethyl)amino)pyrimidin-4-yl)phenyl)-[1,2,4]oxadiazol-3-ol]], the IC50 was determined as 26 nM on PTGER2 (EP2), 263 nM on PTGER4 (EP4) and 106 nM against EP2 receptor.

For the molecule `Cc1sc2c(C)cc(F)cc2c1CCNc1cc(-c2cc3c(C(=O)O)cccc3[nH]2)ncn1` [Example 82, 2-{6-[2-(5-Fluoro-2,7-dimethyl-benzo[b]thiophen-3-yl)-ethylamino]-pyrimidin-4-yl}-1H-indole-4-carboxylic acid], the IC50 on PTGER2 (EP2) was 13 nM; at PTGER4 (EP4), 155 nM; on EP2 receptor, 21 nM.

Consider `COc1cc(Cl)cc2c(CCNc3cc(-c4ccc(C(=O)O)c(OC5CC5)c4)ncn3)c(C)oc12` [Example 83, 4-{6-[2-(5-Chloro-7-methoxy-2-methyl-benzofuran-3-yl)-ethylamino]-pyrimidin-4-yl}-2-cyclopropoxy-benzoic acid], for which the concentration for half-maximal inhibition (IC50) on PTGER2 (EP2) is 22 nM; at PTGER4 (EP4), 101 nM; against EP2 receptor it was 44 nM.

In the case of `COc1ccc(F)c2c(CCNc3cc(-c4ccc(C(=O)O)c(OC5CC5)c4)ncn3)c(C)sc12` [Example 84, 2-Cyclopropoxy-4-{6-[2-(4-fluoro-7-methoxy-2-methyl-benzo[b]thiophen-3-yl)-ethylamino]-pyrimidin-4-yl}-benzoic acid], the IC50 stood at 21 nM at PTGER2 (EP2), 80 nM at PTGER4 (EP4) and 21 nM against EP2 receptor.

As for `COc1cc(F)c(F)c2c(CCNc3cc(-c4ccc(C(=O)O)c(OC5CC5)c4)ncn3)c(C)oc12` [Example 85, 2-Cyclopropoxy-4-{6-[2-(4,5-difluoro-7-methoxy-2-methyl-benzofuran-3-yl)-ethylamino]-pyrimidin-4-yl}-benzoic acid], the concentration for half-maximal inhibition (IC50) came to 68 nM on PTGER2 (EP2), 374 nM at PTGER4 (EP4) and 49 nM at EP2 receptor.

`Cc1sc2c(C)cc(F)cc2c1CCNc1cc(-c2ccc(C(=O)O)c(OCCO)c2)ncn1` [Example 86, 4-{6-[2-(5-fluoro-2,7-dimethyl-benzo[b]thiophen-3-yl)-ethylamino]-pyrimidin-4-yl}-2-(2-hydroxy-ethoxy)-benzoic acid]: the IC50 at PTGER2 (EP2) was 19 nM; on PTGER4 (EP4), 4520 nM; against EP2 receptor, 11 nM.

`CCCSc1cc(-c2cc(NCCc3c(C)sc4c(C)cccc34)ncn2)ccc1C(=O)O` [Example 87, 4-{6-[2-(2,7-Dimethyl-benzo[b]thiophen-3-yl)-ethylamino]-pyrimidin-4-yl}-2-propylsulfanyl-benzoic acid]: the half-inhibitory concentration (IC50) stood at 5 nM on PTGER2 (EP2), 318 nM on PTGER4 (EP4) and 15 nM against EP2 receptor.

Consider `CCCSc1cc(-c2cc(NCCc3c(C)sc4ccccc34)ncn2)ccc1C(=O)O` [Example 88, 4-{6-[2-(2-Methyl-benzo[b]thiophen-3-yl)-ethylamino]-pyrimidin-4-yl}-2-propylsulfanyl-benzoic acid], for which the 50% inhibitory concentration (IC50) is 21 nM at PTGER2 (EP2), 1030 nM on PTGER4 (EP4) and 11 nM at EP2 receptor.

Turning to `CCCSc1cc(-c2cc(NCCc3c(C)oc4ccccc34)ncn2)ccc1C(=O)O` [Example 89, 4-{6-[2-(2-Methyl-benzofuran-3-yl)-ethylamino]-pyrimidin-4-yl}-2-propylsulfanyl-benzoic acid], the results for the IC50 on PTGER2 (EP2), at PTGER4 (EP4) and at EP2 receptor were 10 nM, 1030 nM and 5 nM, respectively.

Consider `Cc1sc2c(C)cccc2c1CCNc1cc(-c2ccc(C(=O)O)c(SC(C)C)c2)ncn1` [Example 90, 4-{6-[2-(2,7-Dimethyl-benzo[b]thiophen-3-yl)-ethylamino]-pyrimidin-4-yl}-2-isopropylsulfanyl-benzoic acid], for which the IC50 on PTGER2 (EP2) worked out at 11 nM; at PTGER4 (EP4), 247 nM; against EP2 receptor, 35 nM.

Consider `Cc1sc2ccccc2c1CCNc1cc(-c2ccc(C(=O)O)c(SC(C)C)c2)ncn1` [Example 91, 2-Isopropylsulfanyl-4-{6-[2-(2-methyl-benzo[b]thiophen-3-yl)-ethylamino]-pyrimidin-4-yl}-benzoic acid], for which the half-maximal inhibitory concentration (IC50) at PTGER2 (EP2) amounted to 20 nM; on PTGER4 (EP4) it was 843 nM; on EP2 receptor, 10 nM.

Turning to `Cc1oc2ccccc2c1CCNc1cc(-c2ccc(C(=O)O)c(SC(C)C)c2)ncn1` [Example 92, 2-Isopropylsulfanyl-4-{6-[2-(2-methyl-benzofuran-3-yl)-ethylamino]-pyrimidin-4-yl}-benzoic acid], the IC50 at PTGER2 (EP2) worked out at 6 nM; at PTGER4 (EP4) it was 816 nM; against EP2 receptor, 6 nM.

Take `CCc1cc(-c2cc(NCCc3c(C)sc4c(C)cc(F)cc34)ncn2)cc(C)c1CC(=O)O` [Example 194, (2-Ethyl-4-{6-[2-(5-fluoro-2,7-dimethyl-benzo[b]thiophen-3-yl)-ethylamino]-pyrimidin-4-yl}-6-methyl-phenyl)-acetic acid]: the concentration for half-maximal inhibition (IC50) at PTGER2 (EP2) was 47 nM; on PTGER4 (EP4), 96 nM; at EP2 receptor it was 326 nM.

As for `Cc1sc2c(C)cc(F)cc2c1CCNc1cc(-c2ccc(C(=O)O)c(OC3CC3)c2)ncn1` [Example 195, 2-Cyclopropoxy-4-{6-[2-(5-fluoro-2,7-dimethyl-benzo[b]thiophen-3-yl)-ethylamino]-pyrimidin-4-yl}-benzoic acid], the 50% inhibitory concentration (IC50) was 4 nM at PTGER2 (EP2), 111 nM on PTGER4 (EP4) and 6 nM on EP2 receptor.

On to `Cc1sc2c(C)cc(F)cc2c1CCNc1cc(-c2ccc(CC(=O)O)c(OC3CC3)c2)ncn1` [Example 196, (2-Cyclopropoxy-4-{6-[2-(5-fluoro-2,7-dimethyl-benzo[b]thiophen-3-yl)-ethylamino]-pyrimidin-4-yl}-phenyl)-acetic acid], for which the IC50 at PTGER2 (EP2) is 16 nM; at PTGER4 (EP4), 99 nM; at EP2 receptor, 50 nM.

For `CCOc1cc(-c2cc(NCCc3c(C)sc4c(C)cc(F)cc34)ncn2)ccc1-c1cc(O)no1` [Example 202, 5-(2-Ethoxy-4-{6-[2-(5-fluoro-2,7-dimethyl-benzo[b]thiophen-3-yl)-ethylamino]-pyrimidin-4-yl}-phenyl)-isoxazol-3-ol [tautomeric form: 5-(2-ethoxy-4-(6-((2-(5-fluoro-2,7-dimethylbenzo[b]thiophen-3-yl)ethyl)amino)pyrimidin-4-yl)phenyl)isoxazol-3(2H)-one]], the IC50 was found to be 17 nM at PTGER2 (EP2), 100 nM on PTGER4 (EP4) and 75 nM at EP2 receptor.

The values are drawn from patent US11325899B2, “Benzofurane and benzothiophene derivatives as PGE2 receptor modulators” (IDORSIA PHARMACEUTICALS LTD, priority 2017, dated 2022).
